Columns and labels:
[1] = Inhibition of melanin synthesis in NHEM cells assessed as [14C]thiouracil incorporation after 72 hrs by liquid scintillation counting; format: functional, cell-based, Homo sapiens
[2] = Cytotoxicity against NHEM cells assessed as cell viability after 72 hrs by WST-8 assay; format: cell-based; details: human

IC50 ([1]; Homo sapiens, NHEM, 72 h) [µM] | IC50 ([1]; nhem) [µM] | SMILES | Activity [2]
2.52 | – | CC(C)=CCc1cc2c(c(CC=C(C)C)c1O)O[C@H](c1ccc(O)cc1)CC2=O | Non-toxic
– | 1.02 | CC(C)=CCc1c(O)c(CC=C(C)C)c2c(c1O)C(=O)C[C@@H](c1cc3c(cc1O)OC(C)(C)C=C3)O2 (stereo in doubt) [EUCHRENONE A3] | –
1.51 | – | CC(C)=CCc1c(O)c(CC=C(C)C)c2c(c1O)C(=O)C[C@@H](c1cc3c(cc1O)OC(C)(C)C=C3)O2 (stereo in doubt; 45) [EUCHRENONE A3] | Non-toxic
1.21 | – | CC(C)=CCc1cc([C@@H]2CC(=O)c3c(O)c(CC=C(C)C)c(O)c(CC=C(C)C)c3O2)ccc1O [AMORILIN] | –
3.6 | – | CC(C)=CCc1cc([C@@H]2CC(=O)c3c(O)c(CC=C(C)C)c(O)c(CC=C(C)C)c3O2)cc(O)c1O [AMORISIN] | –
103 | – | OC[C@H]1O[C@@H](Oc2ccc(O)cc2)[C@H](O)[C@@H](O)[C@@H]1O [ARBUTIN] | –
2.7 | – | CC(C)=CCc1cc2c(cc1O)O[C@H](c1ccc(O)cc1)CC2=O [BAVACHIN] | Non-toxic
8.41 | – | CC(C)=CCc1c(O)c2c(c3c1OC(C)(C)C=C3)O[C@H](c1ccc(O)cc1)CC2=O [CAJAFLAVANONE] | Non-toxic
3.84 | – | CC(C)=CCc1c(O)ccc2c1O[C@H]1c3ccc(O)c(CC=C(C)C)c3OC[C@@H]21 [ERYBRAEDIN A] | Non-toxic
2 | – | CC(C)=CCc1cc2c(cc1O)OC[C@H]1c3ccc(O)c(CC=C(C)C)c3O[C@@H]21 [ERYBRAEDIN C] | Non-toxic
2.93 | – | CC(C)=CCc1c(O)ccc2c1OC[C@H]1c3ccc4c(c3O[C@@H]21)C=CC(C)(C)O4 [ERYBREADIN B] | Non-toxic
1.84 | – | CC(C)=CCc1cc2c(cc1O)OC[C@H]1c3ccc4c(c3O[C@@H]21)C=CC(C)(C)O4 [FOLITENOL] | Non-toxic
29.2 | – | O=c1c(-c2ccc(O)cc2)coc2cc(O)cc(O)c12 [GENISTEIN] | Non-toxic
2.2 | – | Oc1ccc(O)cc1 [HYDROQUINONE] | –
7.8 | – | CC(C)=CCc1cc([C@@H]2CC(=O)c3c(O)c(CC=C(C)C)c(O)c(CC=C(C)C)c3O2)c(O)cc1O [LESPEDEZAFLAVANONE H] | –
3.96 | – | COc1ccc([C@@H]2CC(=O)c3cc(CC=C(C)C)c(O)c(CC=C(C)C)c3O2)cc1 [LESPEFLORIN A1] | Non-toxic
3.86 | – | COc1ccc([C@@H]2CC(=O)c3ccc(O)c(CC=C(C)C)c3O2)cc1 [LESPEFLORIN A2] | Non-toxic
1.5 | – | CC(C)=CCc1cc2c(c(CC=C(C)C)c1O)O[C@H](c1ccc3c(c1)C=CC(C)(C)O3)CC2=O [LESPEFLORIN A3] | Non-toxic
4.93 | – | COc1cc(O)ccc1[C@@H]1CC(=O)c2c(O)cc3c(c2O1)C=CC(C)(C)O3 [LESPEFLORIN A4] | Non-toxic

IC50 ([1]; Homo sapiens, NHEM, 72 h) [µM] | IC50 ([1]; nhem) [µM] | SMILES | Activity [2]
2.87 | – | CC(C)=CCc1cc([C@H]2Oc3cc(O)c(CC=C(C)C)cc3C(=O)[C@@H]2O)ccc1O [LESPEFLORIN B1] | Non-toxic
2.19 | – | CC(C)=CCc1cc2c(c(CC=C(C)C)c1O)O[C@H](c1ccc(O)cc1)[C@@H](O)C2=O [LESPEFLORIN B2] | Non-toxic
0.68 | – | CC(C)=CCc1cc([C@H]2Oc3c(cc(CC=C(C)C)c(O)c3CC=C(C)C)C(=O)[C@@H]2O)ccc1O [LESPEFLORIN B3] | Non-toxic
1.23 | – | CC(C)=CCc1cc([C@H]2Oc3c(CC=C(C)C)c(O)c(CC=C(C)C)c(O)c3C(=O)[C@@H]2O)ccc1O [LESPEFLORIN B4] | Non-toxic
> 146 | – | CC(C)=CCc1cc(C(=O)[C@@H](O)Cc2ccc(O)cc2)c(O)cc1O [LESPEFLORIN C1] | Non-toxic
28.1 | – | COc1ccc(C[C@H](O)C(=O)c2cc(CC=C(C)C)c(O)cc2O)cc1 [LESPEFLORIN C2] | Non-toxic
1.68 | – | COc1cc(O)c(CC=C(C)C)cc1C(=O)[C@@H](O)Cc1ccc(O)cc1 [LESPEFLORIN C3] | Non-toxic
> 135 | – | COc1ccc(C[C@H](O)C(=O)c2cc(CC=C(C)C)c(O)cc2OC)cc1 [LESPEFLORIN C4] | Non-toxic
> 135 | – | CC(C)=CCc1cc(C(=O)[C@@H](O)Cc2ccc(O)cc2)c(O)c(C)c1O [LESPEFLORIN C5] | Non-toxic
22 | – | CC(C)=CCc1cc(C(=O)[C@@H](O)Cc2ccc(O)cc2)c(O)c(CC=C(C)C)c1O [LESPEFLORIN C6] | Non-toxic
3.78 | – | COc1cc2c(cc1C(=O)[C@@H](O)Cc1ccc(O)cc1)C=CC(C)(C)O2 [LESPEFLORIN C7] | Non-toxic
1.47 | – | COc1c([C@@H]2COc3c(ccc(O)c3CC=C(C)C)C2=O)ccc(O)c1CC=C(C)C [LESPEFLORIN D1] | Non-toxic
4.29 | – | COc1c(O)ccc2c1OCC(c1ccc(O)c(OC)c1OC)=C2 [LESPEFLORIN E1] | Non-toxic
10.8 | – | COc1c(O)ccc(-c2cc3ccc(O)c(OC)c3o2)c1OC [LESPEFLORIN F1] | Non-toxic
8.27 | – | COc1cc2c(CO)c(-c3ccc(O)cc3O)oc2c(CC=C(C)C)c1O [LESPEFLORIN F2] | Non-toxic
3.73 | – | COc1cc2c(cc1O)O[C@H]1c3ccc(O)c(CC=C(C)C)c3OC[C@@H]21 [LESPEFLORIN G1] | Non-toxic
2.07 | – | COc1c(O)cc2c(c1CC=C(C)C)O[C@H]1c3cc(CC=C(C)C)c(O)cc3OC[C@@H]21 [LESPEFLORIN G2] | Non-toxic
2.03 | – | COc1c(O)cc2c(c1CC=C(C)C)O[C@H]1c3c(cc(O)c(CC=C(C)C)c3OC)OC[C@@H]21 [LESPEFLORIN G3] | Non-toxic
3.24 | – | CC(C)=CCc1cc2c(cc1O)OC[C@H]1c3cc(C)c(O)c(CC=C(C)C)c3O[C@@H]21 [LESPEFLORIN G4] | Non-toxic

IC50 ([1]; Homo sapiens, NHEM, 72 h) [µM] | IC50 ([1]; nhem) [µM] | SMILES | Activity [2]
1.52 | – | CC(C)=CCc1c(O)c(C)cc2c1O[C@H]1c3ccc(O)c(CC=C(C)C)c3OC[C@@H]21 [LESPEFLORIN G5] | Non-toxic
6.16 | – | COc1c(C)cc2c(c1CC=C(C)C)O[C@H]1c3ccc(O)cc3OC[C@@H]21 [LESPEFLORIN G6] | Non-toxic
6.02 | – | COc1cc2c(c(CC=C(C)C)c1O)O[C@H]1c3ccc(O)cc3OC[C@@H]21 [LESPEFLORIN G7] | Non-toxic
1.63 | – | COc1ccc2c(c1)OC[C@H]1c3cc(O)c(OC)c(CC=C(C)C)c3O[C@@H]21 [LESPEFLORIN G8] | Non-toxic
8.38 | – | COc1ccc2c(c1)OC[C@H]1c3cc(OC)c(O)c(CC=C(C)C)c3O[C@@H]21 [LESPEFLORIN G9] | Non-toxic
1.44 | – | CC(C)=CCc1c(O)c(C)cc2c1O[C@H]1c3ccc(O)cc3OC[C@@H]21 [LESPEFLORIN G10] | Non-toxic
2.9 | – | CC(C)=CCc1cc2c(cc1O)OC[C@H]1c3cc(O)c4c(c3O[C@@H]21)C=CC(C)(C)O4 [LESPEFLORIN G11] | Non-toxic
8.34 | – | COc1ccc2c(c1)OC[C@H]1c3cc(O)c4c(c3O[C@@H]21)C=CC(C)(C)O4 [LESPEFLORIN G12] | Non-toxic
27 | – | COc1ccc2c(c1)OCc1c-2oc2c(CC=C(C)C)c(O)c(O)cc12 [LESPEFLORIN H1] | Non-toxic
1.48 | – | COc1ccc2c(c1)OCc1c-2oc2c3c(c(O)cc12)OC(C)(C)C=C3 [LESPEFLORIN H2] | Non-toxic
3.21 | – | CC(C)=CCc1cc2c(cc1O)oc(=O)c1c3cc(O)c(O)cc3oc21 [LESPEFLORIN I1] | Non-toxic
28.3 | – | CC(C)=CCc1cc2c(cc1O)oc(=O)c1c3cc(O)c(O)c(CC=C(C)C)c3oc21 [LESPEFLORIN I2] | Non-toxic
27.3 | – | COc1ccc2c(c1)oc(=O)c1c3cc(O)c(O)c(CC=C(C)C)c3oc21 [LESPEFLORIN I3] | Non-toxic
39.6 | – | CC(C)=CCc1cc(-c2oc3c(CC=C(C)C)c(O)c(O)cc3c2C(=O)c2cc3c(c(CC=C(C)C)c2O)O[C@H]2c4ccc(O)c(CC=C(C)C)c4OC[C@@H]32)c(O)cc1O [LESPEFLORIN J1] | Non-toxic
> 52.8 | – | COc1ccc(-c2oc3c(CC=C(C)C)c(O)c(O)cc3c2C(=O)c2cc3c(c(CC=C(C)C)c2O)O[C@H]2c4ccc(O)c(CC=C(C)C)c4OC[C@@H]32)c(O)c1 [LESPEFLORIN J2] | Non-toxic
37.7 | – | CC(C)=CCc1cc(-c2oc3c(CC=C(C)C)c(O)c(O)cc3c2C(=O)c2cc3c(c(CC=C(C)C)c2O)O[C@H]2c4cc(CC=C(C)C)c(O)cc4OC[C@@H]32)c(O)cc1O [LESPEFLORIN J3] | Non-toxic
> 52.8 | – | COc1ccc(-c2oc3c(CC=C(C)C)c(O)c(O)cc3c2C(=O)c2cc3c(c(CC=C(C)C)c2O)O[C@H]2c4cc(CC=C(C)C)c(O)cc4OC[C@@H]32)c(O)c1 [LESPEFLORIN J4] | Non-toxic
2.59 | – | CC(C)=CCc1cc([C@@H]2CC(=O)c3c(cc(O)c(CC=C(C)C)c3O)O2)ccc1O [MACARANGAFLAVANONE B] | Non-toxic
0.98 | – | CC(C)=CCc1cc([C@@H]2CC(=O)c3cc(CC=C(C)C)c(O)c(CC=C(C)C)c3O2)ccc1O [PROSTRATOL] | Non-toxic

From ChEMBL document CHEMBL1151969, “Melanin synthesis inhibitors from Lespedeza floribunda” (J Nat Prod, 2009)
